Test results as given in patent US20260297085A1, “1 H-PYRROLO[2,3-B]PYRIDIN-4-YL]-2-OXOPYRROLIDINE-3-CARBONITRILE DERIVATIVES AS TYROSINE KINASE 2 (TYK2) INHIBITORS FOR THE TREATMENT OF INFLAMMATORY DISEASES” (BIOGEN MA INC., priority 2023, published 2026).
Counter-ions that a name gives are not always drawn.

What was measured:
[1] = biological target: T1, human TYK2 kinase domain (JH1) (Homo sapiens, UniProt P29597); experiment: JH1 biochemical assay for TYK2 (ADP-Glo kinase assay, recombinant JH1 catalytic domain, JAK3-974 peptide, 10 μM ATP)
T1 construct: recombinantly generated catalytic kinase (also known as JH1) domain of human JAK1, JAK2, JAK3 and TYK2
T1 sequence (P29597 897-1176 limits assumed): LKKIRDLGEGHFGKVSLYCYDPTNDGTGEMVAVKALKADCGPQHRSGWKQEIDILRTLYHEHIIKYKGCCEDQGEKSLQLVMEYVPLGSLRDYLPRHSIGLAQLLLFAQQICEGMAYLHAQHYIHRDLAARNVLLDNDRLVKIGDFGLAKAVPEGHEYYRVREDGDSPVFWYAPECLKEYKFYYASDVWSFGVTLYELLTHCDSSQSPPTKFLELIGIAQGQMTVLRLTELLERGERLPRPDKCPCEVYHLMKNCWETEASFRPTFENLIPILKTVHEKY
Summary of the method: (§1)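 Enzyme levels: JAK1 4 nM, JAK2 0.2 nM, JAK3 0.3 nM, TYK2 2 nM. Peptide substrate at 50 μM. Reactions ran 100 minutes; ADP formed was converted to luciferase luminescence after ATP depletion. Compounds tested from 10 μM or 1 μM top, 11-point 3-fold dilutions; IC50 from 4-parameter logistic fit of normalized percent activity.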

[2] = biological target: T2, human JAK1 kinase domain (JH1) (Homo sapiens, UniProt P23458); experiment: JH1 biochemical assay for JAK1 (ADP-Glo kinase assay, recombinant JH1 catalytic domain, JAK3-342 peptide, 35 μM ATP)
T2 construct: recombinantly generated catalytic kinase (also known as JH1) domain of human JAK1, JAK2, JAK3 and TYK2
T2 sequence (P23458 875-1153 limits assumed): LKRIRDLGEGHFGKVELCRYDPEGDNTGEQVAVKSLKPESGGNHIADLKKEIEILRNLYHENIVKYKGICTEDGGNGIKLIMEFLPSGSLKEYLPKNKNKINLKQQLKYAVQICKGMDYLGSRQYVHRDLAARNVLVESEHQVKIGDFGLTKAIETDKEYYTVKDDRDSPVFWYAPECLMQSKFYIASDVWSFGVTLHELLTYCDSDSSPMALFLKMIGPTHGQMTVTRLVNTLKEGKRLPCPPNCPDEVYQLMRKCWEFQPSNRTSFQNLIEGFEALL
Summary of the method: as §1

[3] = biological target: T3, human JAK2 kinase domain (JH1) (Homo sapiens, UniProt O60674); experiment: JH1 biochemical assay for JAK2 (ADP-Glo kinase assay, recombinant JH1 catalytic domain, JAK3-974 peptide, 15 μM ATP)
T3 construct: recombinantly generated catalytic kinase (also known as JH1) domain of human JAK1, JAK2, JAK3 and TYK2
T3 sequence (O60674 849-1124 limits assumed): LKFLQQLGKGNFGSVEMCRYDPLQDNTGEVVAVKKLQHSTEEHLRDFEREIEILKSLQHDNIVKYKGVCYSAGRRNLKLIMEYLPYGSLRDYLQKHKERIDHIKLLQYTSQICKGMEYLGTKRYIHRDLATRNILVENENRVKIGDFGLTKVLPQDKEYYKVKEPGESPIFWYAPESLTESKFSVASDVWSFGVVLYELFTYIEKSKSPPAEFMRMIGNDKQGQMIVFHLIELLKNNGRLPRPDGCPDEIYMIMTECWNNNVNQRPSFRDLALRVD
Summary of the method: as §1

[4] = biological target: T4, human JAK3 kinase domain (JH1) (Homo sapiens, UniProt P52333); experiment: JH1 biochemical assay for JAK3 (ADP-Glo kinase assay, recombinant JH1 catalytic domain, JAK3-974 peptide, 4 μM ATP)
T4 construct: recombinantly generated catalytic kinase (also known as JH1) domain of human JAK1, JAK2, JAK3 and TYK2
T4 sequence (P52333 822-1111 limits assumed): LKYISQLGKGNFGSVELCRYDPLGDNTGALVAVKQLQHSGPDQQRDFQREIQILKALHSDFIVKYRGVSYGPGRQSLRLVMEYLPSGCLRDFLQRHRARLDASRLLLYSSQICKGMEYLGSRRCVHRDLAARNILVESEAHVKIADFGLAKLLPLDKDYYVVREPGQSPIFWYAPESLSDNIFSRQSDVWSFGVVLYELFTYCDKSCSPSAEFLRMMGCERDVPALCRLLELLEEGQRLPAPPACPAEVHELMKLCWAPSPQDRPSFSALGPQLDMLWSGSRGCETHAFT
Summary of the method: as §1

[5] = biological target: Tyk2 kinase activity on STAT4 in NK92 cells (Homo sapiens, UniProt P29597); experiment: pSTAT4 cell assay (MSD; NK92 cells, 30 ng/mL IL2 stimulation); type: cell-based; settings: 30 ng/mL IL2, 15 minutes
Sequence of Tyk2 kinase activity on STAT4 in NK92 cells (P29597 whole entry): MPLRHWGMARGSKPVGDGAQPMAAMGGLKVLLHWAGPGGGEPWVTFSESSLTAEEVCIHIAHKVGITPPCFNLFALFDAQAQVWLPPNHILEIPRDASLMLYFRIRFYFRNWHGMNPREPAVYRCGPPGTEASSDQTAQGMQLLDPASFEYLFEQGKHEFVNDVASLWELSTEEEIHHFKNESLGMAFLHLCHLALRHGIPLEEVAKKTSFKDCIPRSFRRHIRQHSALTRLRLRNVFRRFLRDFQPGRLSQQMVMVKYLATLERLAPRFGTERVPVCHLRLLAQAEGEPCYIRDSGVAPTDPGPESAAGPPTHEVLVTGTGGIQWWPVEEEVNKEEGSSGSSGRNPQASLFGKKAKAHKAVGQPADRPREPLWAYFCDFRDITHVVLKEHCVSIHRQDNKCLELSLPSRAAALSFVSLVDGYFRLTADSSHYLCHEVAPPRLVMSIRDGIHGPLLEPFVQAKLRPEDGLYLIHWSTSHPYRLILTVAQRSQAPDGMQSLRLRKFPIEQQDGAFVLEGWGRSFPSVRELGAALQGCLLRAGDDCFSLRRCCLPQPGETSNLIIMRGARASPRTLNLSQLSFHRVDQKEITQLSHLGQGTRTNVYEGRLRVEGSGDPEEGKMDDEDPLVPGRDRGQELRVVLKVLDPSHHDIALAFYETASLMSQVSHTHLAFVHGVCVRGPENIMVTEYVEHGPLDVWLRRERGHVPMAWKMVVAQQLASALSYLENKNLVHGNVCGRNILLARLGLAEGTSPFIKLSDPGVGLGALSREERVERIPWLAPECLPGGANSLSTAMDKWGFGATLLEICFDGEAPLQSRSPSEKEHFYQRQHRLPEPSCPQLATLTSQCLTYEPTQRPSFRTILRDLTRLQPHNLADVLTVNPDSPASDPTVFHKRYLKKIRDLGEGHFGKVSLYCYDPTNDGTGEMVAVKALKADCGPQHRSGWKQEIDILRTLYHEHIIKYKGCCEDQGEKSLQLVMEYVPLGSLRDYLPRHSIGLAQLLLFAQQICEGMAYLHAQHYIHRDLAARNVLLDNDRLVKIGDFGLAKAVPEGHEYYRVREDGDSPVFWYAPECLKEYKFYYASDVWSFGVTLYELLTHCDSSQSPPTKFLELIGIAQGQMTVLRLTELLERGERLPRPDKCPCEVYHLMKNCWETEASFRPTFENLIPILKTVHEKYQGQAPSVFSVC
Summary of the method: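 Serum-starved NK92 cells were preincubated 1 hr with compound (10-point, four-fold dilutions from 10 μM), then stimulated with 30 ng/mL IL2 for 15 minutes. Lysates were read on an MSD plate assay using anti-STAT4 antibodies, and IC50 came from a 4-parameter logistic fit of normalized percent activity.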

[6] = biological target: JAK2 kinase activity on STAT5 in TF1 cells (Homo sapiens, UniProt O60674); experiment: pSTAT5 cell assay (MSD; TF1 cells, 30 ng/mL IL-3 stimulation); type: cell-based; settings: 30 ng/mL IL-3, 15 minutes
Sequence of JAK2 kinase activity on STAT5 in TF1 cells (O60674 whole entry): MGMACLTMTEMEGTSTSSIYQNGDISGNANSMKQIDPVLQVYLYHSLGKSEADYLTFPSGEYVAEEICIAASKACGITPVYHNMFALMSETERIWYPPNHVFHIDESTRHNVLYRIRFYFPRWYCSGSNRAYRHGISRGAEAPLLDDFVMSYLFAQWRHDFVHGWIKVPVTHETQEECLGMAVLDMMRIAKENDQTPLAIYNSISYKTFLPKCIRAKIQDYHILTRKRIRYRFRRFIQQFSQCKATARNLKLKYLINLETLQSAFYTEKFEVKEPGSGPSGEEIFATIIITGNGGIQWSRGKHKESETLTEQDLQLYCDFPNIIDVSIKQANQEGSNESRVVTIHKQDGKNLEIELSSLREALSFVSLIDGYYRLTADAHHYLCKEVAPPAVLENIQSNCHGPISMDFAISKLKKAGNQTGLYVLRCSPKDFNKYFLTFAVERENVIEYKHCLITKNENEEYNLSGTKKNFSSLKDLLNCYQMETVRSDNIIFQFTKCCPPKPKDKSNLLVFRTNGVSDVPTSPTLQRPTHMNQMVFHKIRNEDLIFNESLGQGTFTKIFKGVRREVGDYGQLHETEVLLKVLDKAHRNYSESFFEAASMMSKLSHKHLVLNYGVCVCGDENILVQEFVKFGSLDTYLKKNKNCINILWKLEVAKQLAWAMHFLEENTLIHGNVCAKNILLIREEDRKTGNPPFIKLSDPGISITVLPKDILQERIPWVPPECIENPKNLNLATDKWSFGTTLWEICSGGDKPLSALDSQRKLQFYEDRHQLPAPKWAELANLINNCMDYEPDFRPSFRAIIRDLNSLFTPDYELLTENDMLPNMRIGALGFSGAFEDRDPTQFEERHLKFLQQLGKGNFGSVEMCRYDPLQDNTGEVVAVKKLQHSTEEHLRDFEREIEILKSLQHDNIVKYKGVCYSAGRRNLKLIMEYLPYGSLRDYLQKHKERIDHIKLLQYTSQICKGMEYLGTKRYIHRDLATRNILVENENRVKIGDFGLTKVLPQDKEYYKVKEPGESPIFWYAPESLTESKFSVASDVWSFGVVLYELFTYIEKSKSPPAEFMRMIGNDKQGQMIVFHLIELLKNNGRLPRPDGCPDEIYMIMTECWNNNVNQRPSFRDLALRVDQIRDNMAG
Summary of the method: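 Serum-starved TF1 cells with native JAK2/STAT5 were pretreated 1 h with compound (10-point four-fold dilutions from 10 μM), then stimulated 15 min with 30 ng/mL IL-3. pSTAT5 in lysates quantified by MSD immunoassay; normalized percent activity fitted to a 4-parameter logistic curve for IC50.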

[7] = biological target: JAK1 kinase activity on STAT3 in TF1 cells (Homo sapiens, UniProt P23458); experiment: pSTAT3 cell assay (MSD; TF1 cells, 30 ng/mL IL-6 stimulation); type: cell-based; settings: 30 ng/mL IL-6, 15 minutes
Sequence of JAK1 kinase activity on STAT3 in TF1 cells (P23458 whole entry): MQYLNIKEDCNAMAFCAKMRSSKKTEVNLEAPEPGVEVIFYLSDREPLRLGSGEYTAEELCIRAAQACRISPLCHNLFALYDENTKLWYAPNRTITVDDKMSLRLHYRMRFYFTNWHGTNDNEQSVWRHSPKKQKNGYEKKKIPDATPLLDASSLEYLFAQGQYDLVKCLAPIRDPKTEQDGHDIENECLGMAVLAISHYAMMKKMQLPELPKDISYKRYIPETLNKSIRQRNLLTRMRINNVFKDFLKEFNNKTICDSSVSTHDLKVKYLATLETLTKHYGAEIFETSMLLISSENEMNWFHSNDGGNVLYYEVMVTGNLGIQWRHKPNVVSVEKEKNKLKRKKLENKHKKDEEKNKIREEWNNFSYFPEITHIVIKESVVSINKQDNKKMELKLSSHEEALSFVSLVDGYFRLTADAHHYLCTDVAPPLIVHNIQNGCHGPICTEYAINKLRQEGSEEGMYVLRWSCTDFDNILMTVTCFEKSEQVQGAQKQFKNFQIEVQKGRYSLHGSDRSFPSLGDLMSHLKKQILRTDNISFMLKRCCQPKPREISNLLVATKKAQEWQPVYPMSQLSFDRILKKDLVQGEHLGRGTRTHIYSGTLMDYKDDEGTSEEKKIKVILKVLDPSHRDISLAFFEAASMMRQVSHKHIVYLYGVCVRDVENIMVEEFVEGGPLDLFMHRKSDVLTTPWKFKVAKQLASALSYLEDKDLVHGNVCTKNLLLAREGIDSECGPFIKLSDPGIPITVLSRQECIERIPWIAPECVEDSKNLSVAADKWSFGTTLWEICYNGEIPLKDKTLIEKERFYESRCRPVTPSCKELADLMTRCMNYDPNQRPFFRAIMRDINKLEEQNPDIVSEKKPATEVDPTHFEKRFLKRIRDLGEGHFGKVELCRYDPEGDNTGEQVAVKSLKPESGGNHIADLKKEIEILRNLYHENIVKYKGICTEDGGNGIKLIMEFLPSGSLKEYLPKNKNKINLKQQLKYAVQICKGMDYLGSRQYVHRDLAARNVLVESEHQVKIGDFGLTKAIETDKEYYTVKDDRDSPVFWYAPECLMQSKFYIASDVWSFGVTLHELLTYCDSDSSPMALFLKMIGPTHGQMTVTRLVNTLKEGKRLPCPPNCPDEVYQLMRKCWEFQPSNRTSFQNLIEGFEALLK
Summary of the method: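 Serum-starved TF1 cells were pretreated with compound for 1 hour (10-point, four-fold dilutions from 10 μM), then stimulated with IL-6 for 15 minutes. Lysates were assayed for pSTAT3 by MSD with anti-STAT3 antibodies; IC50 came from a 4-parameter logistic fit of normalized percent activity.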

SMILES	IC50 ([1]; JH1 kinase domain, ADP-Glo) [nM]	IC50 ([2]; JH1 kinase domain, ADP-Glo) [nM]	IC50 ([3]; JH1 kinase domain, ADP-Glo) [nM]	IC50 ([4]; JH1 kinase domain, ADP-Glo) [nM]	IC50 [5] [nM]	IC50 [6] [nM]	IC50 [7] [nM]	IC50 ([1]; TYK2 JH1, ADP-Glo) [nM]	IC50 ([2]; JAK1 JH1, ADP-Glo) [nM]	IC50 ([3]; JAK2 JH1, ADP-Glo) [nM]	IC50 ([4]; JAK3 JH1, ADP-Glo) [nM]
C[C@@H]1CN(c2ccnc3[nH]c(-c4cnn(C)c4)cc23)C(=O)[C@]1(C#N)C1CC1 [Example 1, (3R,4S)-3-cyclopropyl-4-methyl-1-(2-(1-methyl-1H-pyrazol-4-yl)-1H-pyrrolo[2,3-b]pyridin-4-yl)-2-oxopyrrolidine-3-carbonitrile]	< 5	< 100	< 100	< 100	5 to 20	100 to 1000	< 100				
Cn1cc(-c2cc3c(N4CC[C@@](C#N)(C5CC5)C4=O)ccnn3c2)c(F)n1 [Example 12, (S)-3-cyclopropyl-1-(6-(3-fluoro-1-methyl-1H-pyrazol-4-yl)pyrrolo[1,2-b]pyridazin-4-yl)-2-oxopyrrolidine-3-carbonitrile]	5 to 20	100 to 1000	100 to 1000	100 to 1000	> 100	> 10000	1000 to 5000				
C[C@@H]1CN(c2ccnn3cc(-c4ccc5ncnn5c4)cc23)C(=O)[C@]1(C#N)C1CC1 [Example 57, (3R,4S)-1-(6-([1,2,4]triazolo[1,5-a]pyridin-6-yl)pyrrolo[1,2-b]pyridazin-4-yl)-3-cyclopropyl-4-methyl-2-oxopyrrolidine-3-carbonitrile]	5 to 20	100 to 1000	100 to 1000	100 to 1000	> 100	> 10000	1000 to 5000				
C[C@@H]1CN(c2nc(-c3cnc(N(C)C)nc3)cn3nccc23)C(=O)[C@]1(C#N)C1CC1 [Example 264, (3R,4S)-3-cyclopropyl-1-(6-(2-(dimethylamino)pyrimidin-5-yl)pyrazolo[1,5-a]pyrazin-4-yl)-4-methyl-2-oxopyrrolidine-3-carbonitrile trifluoroacetate]					50 to 100	> 10000	> 10000	5 to 20	100 to 1000	1000 to 5000	100 to 1000
Cc1ccc(-c2cn3nccc3c(N3C[C@@H](C)[C@@](C#N)(C4CC4)C3=O)n2)cn1 [Example 233, (3R,4S)-3-cyclopropyl-4-methyl-1-(6-(6-methylpyridin-3-yl)pyrazolo[1,5-a]pyrazin-4-yl)-2-oxopyrrolidine-3-carbonitrile trifluoroacetate]					> 100	1000 to 5000	1000 to 5000	< 5	< 100	100 to 1000	< 100
C[C@@H]1CN(c2ccnn3cc(-c4cnc(C(F)F)s4)cc23)C(=O)[C@]1(C#N)C1CC1 [Example 101, (3R,4S)-3-cyclopropyl-1-(6-(2-(difluoromethyl)thiazol-5-yl)pyrrolo[1,2-b]pyridazin-4-yl)-4-methyl-2-oxopyrrolidine-3-carbonitrile trifluoroacetate]	5 to 20	100 to 1000	100 to 1000	100 to 1000	> 100	> 10000	1000 to 5000				
CO[C@H]1C[C@H](n2cc(-c3cc4ncsc4c(N4C[C@@H](C)[C@@](C#N)(C5CC5)C4=O)n3)cn2)C1 [Example 355, (3R,4S)-3-cyclopropyl-1-(6-(1-((1r,3R)-3-methoxycyclobutyl)-1H-pyrazol-4-yl)thiazolo[5,4-c]pyridin-4-yl)-4-methyl-2-oxopyrrolidine-3-carbonitrile]					20 to 50	< 100	< 100	< 5	< 100	< 100	< 100
C[C@@H]1CN(c2nc(-c3cnn(C4(C)COC4)c3)cn3ncc(F)c23)C(=O)[C@]1(C#N)C1CC1 [Example 300, (3R,4S)-3-cyclopropyl-1-(3-fluoro-6-(1-(3-methyloxetan-3-yl)-1H-pyrazol-4-yl)pyrazolo[1,5-a]pyrazin-4-yl)-4-methyl-2-oxopyrrolidine-3-carbonitrile]					> 100	1000 to 5000	100 to 1000	< 5	< 100	100 to 1000	< 100
Cc1cc(-c2cc3c(N4C[C@@H](C)[C@@](C#N)(C5CC5)C4=O)ccnn3c2)ccn1 [Example 77, (3R,4S)-3-cyclopropyl-4-methyl-1-(6-(2-methylpyridin-4-yl)pyrrolo[1,2-b]pyridazin-4-yl)-2-oxopyrrolidine-3-carbonitrile]	< 5	< 100	100 to 1000	100 to 1000	50 to 100	1000 to 5000	100 to 1000				
C[C@@H]1CN(c2ccnn3cc(-c4cnn(C5CC5)c4)cc23)C(=O)[C@]1(C#N)C1CC1 [Example 161, (3R,4S)-3-cyclopropyl-1-(6-(1-cyclopropyl-1H-pyrazol-4-yl)pyrrolo[1,2-b]pyridazin-4-yl)-4-methyl-2-oxopyrrolidine-3-carbonitrile]	< 5	100 to 1000	100 to 1000	100 to 1000	20 to 50	1000 to 5000	1000 to 5000				
COc1ncccc1-c1cc2c(N3C[C@@H](C)[C@@](C#N)(C4CC4)C3=O)ccnn2c1 [Example 96, (3R,4S)-3-cyclopropyl-1-(6-(2-methoxypyridin-3-yl)pyrrolo[1,2-b]pyridazin-4-yl)-4-methyl-2-oxopyrrolidine-3-carbonitrile]	5 to 20	1000 to 5000	1000 to 5000	1000 to 5000	> 100	> 10000	> 10000				
C[C@@H]1CN(c2ccnn3cc(-c4cnn(C5CCN(C)C5)c4)cc23)C(=O)[C@]1(C#N)C1CC1 (stereo partly drawn) [Example 332, (3R,4S)-3-cyclopropyl-4-methyl-1-(6-(1-(1-methylpyrrolidin-3-yl)-1H-pyrazol-4-yl)pyrrolo[1,2-b]pyridazin-4-yl)-2-oxopyrrolidine-3-carbonitrile]					50 to 100	1000 to 5000	1000 to 5000	< 5	100 to 1000	100 to 1000	< 100
C[C@@H]1CN(c2nc(-c3cnn(C4CN(C)C4)c3)cc3ncsc23)C(=O)[C@]1(C#N)C1CC1 [Example 358, (3R,4S)-3-cyclopropyl-4-methyl-1-(6-(1-(1-methylazetidin-3-yl)-1H-pyrazol-4-yl)thiazolo[5,4-c]pyridin-4-yl)-2-oxopyrrolidine-3-carbonitrile]					50 to 100	100 to 1000	100 to 1000	< 5	< 100	< 100	< 100
C[C@@H]1CN(c2ccnn3cc(-c4ccnc(F)c4)cc23)C(=O)[C@]1(C#N)C1CC1 [Example 73, (3R,4S)-3-cyclopropyl-1-(6-(2-fluoropyridin-4-yl)pyrrolo[1,2-b]pyridazin-4-yl)-4-methyl-2-oxopyrrolidine-3-carbonitrile]	5 to 20	100 to 1000	100 to 1000	100 to 1000	> 100	> 10000	1000 to 5000				
C[C@@H]1CN(c2nc(-c3cnn(C4CCCC4)c3)cn3ncc(F)c23)C(=O)[C@]1(C#N)C1CC1 [Example 217, (3R,4S)-1-(6-(1-cyclopentyl-1H-pyrazol-4-yl)-3-fluoropyrazolo[1,5-a]pyrazin-4-yl)-3-cyclopropyl-4-methyl-2-oxopyrrolidine-3-carbonitrile]	< 5	< 100	< 100	< 100	> 100	1000 to 5000	100 to 1000				
C[C@@H]1CN(c2nn(-c3cnn(C(F)F)c3)c3cnccc23)C(=O)[C@]1(C#N)C1CC1 [Example 276, (3R,4S)-3-cyclopropyl-1-(1-(1-(difluoromethyl)-1H-pyrazol-4-yl)-1H-pyrazolo[3,4-c]pyridin-3-yl)-4-methyl-2-oxopyrrolidine-3-carbonitrile]					> 100	> 10000	5000 to 10000	5 to 20	100 to 1000	1000 to 5000	100 to 1000
